target: recombinant human GST-Syk (Homo sapiens (Human), UniProt P43405); assay: Homogeneous Time-Resolved Fluorescence (HTRF) assay for the recombinant human Syk enzyme; type: biochemical; conditions: recombinant human GST-Syk 5 pM, ATP 25 μM, read-out: rhSyk IC50
Description: Syk inhibition may be determined using the following assay protocol: Homogeneous Time-Resolved Fluorescence (HTRF) Assay for the Recombinant Human Syk Enzyme: A recombinant GST-hSyk fusion protein was used to measure potency of compounds to inhibit human Syk activity. […] To initiate the reaction the biotinylated substrate peptide (250 nM final concentration) that contains the phosphorylation site for Syk was added with magnesium (5 mM final concentration) and ATP (25 μM final concentration). […] Final volume of the quenching solution was 10 μL.

Compound | IC50 [nM]
Cc1cc(Nc2cc(C(F)F)ccn2)nc(-c2ccc(C(C)(O)[C@H]3CC[C@H](C(=O)OCC4CCCCC4)CC3)nc2)c1 (single isomer, unassigned) [Example 19-14, cyclohexylmethyl trans-4-[(1R or 1S)-1-(6-{[4-(difluoromethyl)pyridin-2-yl]amino}-4-methyl-2,3′-bipyridin-6′-yl)-1-hydroxyethyl] cyclohexanecarboxylate] | 210
Cc1cc(Nc2cc(C(F)F)ccn2)nc(-c2ccc(C(C)(O)[C@H]3CC[C@H](C(=O)OC(C)OC(=O)OC(C)C)CC3)nc2)c1 (single isomer, unassigned) [Example 20-3, 1-{[(propan-2-yloxy)carbonyl]oxy}ethyl trans-4-[(1R or 1S)-1-(6-{[4-(difluoromethyl)pyridin-2-yl]amino}-4-methyl-2,3′-bipyridin-6′-yl)-1-hydroxyethyl] cyclohexanecarboxylate] | 110
Cc1cc(Nc2cc(C(F)F)ccn2)nc(-c2ccc(C(C)(O)[C@H]3CC[C@H](C(=O)OC(C)OC(=O)OC4CCCCC4)CC3)nc2)c1 (single isomer, unassigned) [Example 20-4, 1-{[(cyclohexyloxy)carbonyl]oxy}ethyl trans-4-[(1R or 1S)-1-(6-{[4-(difluoromethyl)pyridin-2-yl]amino}-4-methyl-2,3′-bipyridin-6′-yl)-1-hydroxyethyl] cyclohexanecarboxylate] | 510
Cc1cc(Nc2cc(C(F)F)ccn2)nc(-c2ccc(C(C)(O)[C@H]3CC[C@H](C(=O)OC(C)OC(=O)OC(C)C)CC3)nc2)c1 (single isomer, unassigned) [Example 20-7, 1-{[(propan-2-yloxy)carbonyl]oxy}ethyl trans-4-[(1R or 1S)-1-{6-{[4-(difluoromethyl)pyridin-2-yl]amino}-4-methyl-2,3′-bipyridin-6′-yl)-1-hydroxyethyl] cyclohexanecarboxylate] | 100
Cc1cc(Nc2cc(C(F)F)ccn2)nc(-c2ccc(C(C)(O)[C@H]3CC[C@H](C(=O)OC(C)OC(=O)OC(C)C)CC3)nc2)c1 (single isomer, unassigned) [Example 20-8, 1-{[(propan-2-yloxy)carbonyl]oxy}ethyl trans-4-[(1R or 1S)-1-(6-{[4-(difluoromethyl)pyridin-2-yl]amino}-4-methyl-2,3′-bipyridin-6′-yl)-1-hydroxyethyl] cyclohexanecarboxylate] | 50
Cc1cc(Nc2cc(C(F)F)ccn2)nc(-c2ccc(C(C)(O)[C@H]3CC[C@H](C(=O)OC(C)OC(=O)OC4CCCCC4)CC3)nc2)c1 (single isomer, unassigned) [Example 20-9, 1-{[(cyclohexyloxy)carbonyl]oxy}ethyl trans-4-[(1R or 1S)-1-(6-{[4-(difluoromethyl)pyridin-2-yl]amino}-4-methyl-2,3′-bipyridin-6′-yl)-1-hydroxyethyl] cyclohexanecarboxylate] | 140
Cc1cc(Nc2cc(C(F)F)ccn2)nc(-c2ccc(C(C)(O)[C@H]3CC[C@H](C(=O)OC(C)OC(=O)OC4CCCCC4)CC3)nc2)c1 (single isomer, unassigned) [Example 20-10, 1-{[(cyclohexyloxy)carbonyl]oxy}ethyl trans-4-[(1R or 1S)-1-(6-{[4-(difluoromethyl)pyridin-2-yl]amino}-4-methyl-2,3′-bipyridin-6′-yl)-1-hydroxyethyl] cyclohexanecarboxylate] | 190

Second part, the compound after the results:

IC50 [nM] | Compound
12 | CCOCCOCCOC(=O)[C@H]1CC[C@H](C(C)(O)c2ccc(-c3cc(C)cc(Nc4cc(C(F)F)ccn4)n3)cn2)CC1 (single isomer, unassigned) [Example 19-16, 2-(2-ethoxyethoxy)ethyl trans-4-[(1R or 1S)-1-(6-{[4-(difluoromethyl)pyridin-2-yl]amino}-4-methyl-2,3′-bipyridin-6′-yl)-1-hydroxyethyl] cyclohexanecarboxylate]
4.3 | COC(=O)COC(=O)[C@H]1CC[C@H](C(C)(O)c2ccc(-c3cc(C)cc(Nc4cc(C(F)F)ccn4)n3)cn2)CC1 (single isomer, unassigned) [Example 19-17, 2-methoxy-2-oxoethyl trans-4-[(1R or 1S)-1-(6-{[4-(difluoromethyl)pyridin-2-yl]amino}-4-methyl-2,3′-bipyridin-6′-yl)-1-hydroxyethyl] cyclohexanecarboxylate]
2.3 | Cc1cc(Nc2cc(C(F)F)ccn2)nc(-c2ccc(C(C)(O)[C@H]3CC[C@H](C(=O)OCCN(C)C)CC3)nc2)c1 (single isomer, unassigned) [Example 19-20, 2-(dimethylamino)ethyl trans-4-[(1R or 1S)-1-(6-{[4-difluoromethyl)pyridin-2-yl]amino}-4-methyl-2,3′-bipyridin-6′-yl)-1-hydroxyethyl] cyclohexanecarboxylate]
5.2 | Cc1cc(Nc2cc(C(F)F)ccn2)nc(-c2ccc(C(C)(O)[C@H]3CC[C@H](C(=O)OCc4oc(=O)oc4C)CC3)nc2)c1 (single isomer, unassigned) [Example 19-21, (5-methyl-2-oxo-1,3-dioxol-4-yl)methyl trans-4-[(1R or 1S)-1-(6-{[4-(difluoromethyl)pyridin-2-yl]amino}-4-methyl-2,3′-bipyridin-6′-yl)-1-hydroxyethyl] cyclohexanecarboxylate]
19 | Cc1cc(Nc2cc(C(F)F)ccn2)nc(-c2ccc(C(C)(O)[C@H]3CC[C@H](C(=O)OCOC(=O)OC(C)C)CC3)nc2)c1 (single isomer, unassigned) [Example 20-1, {[(propan-2-yloxy)carbonyl]oxy}methyl trans-4-[(1R or 1S)-1-(6-{[4-(difluoromethyl)pyridin-2-yl]amino}-4-methyl-2,3′-bipyridin-6′-yl)-1-hydroxyethyl] cyclohexanecarboxylate]
69 | CCOC(=O)OC(C)OC(=O)[C@H]1CC[C@H](C(C)(O)c2ccc(-c3cc(C)cc(Nc4cc(C(F)F)ccn4)n3)cn2)CC1 (single isomer, unassigned) [Example 20-2, 1-[(ethoxycarbonyl)oxy]ethyl trans-4-[(1R or 1S)-1-(6-{[4-(difluoromethyl)pyridin-2-yl]amino}-4-methyl-2,3′-bipyridin-6′-yl)-1-hydroxyethyl] cyclohexanecarboxylate]
32 | CCOC(=O)OC(C)OC(=O)[C@H]1CC[C@H](C(C)(O)c2ccc(-c3cc(C)cc(Nc4cc(C(F)F)ccn4)n3)cn2)CC1 (single isomer, unassigned) [Example 20-5, 1-[(ethoxycarbonyl)oxy] ethyl trans-4-[(1R or 1S)-1-(6-{[4-(difluoromethyl)pyridin-2-yl]amino}-4-methyl-2,3′-bipyridin-6′-yl)-1-hydroxyethyl] cyclohexanecarboxylate]
21 | CCOC(=O)OC(C)OC(=O)[C@H]1CC[C@H](C(C)(O)c2ccc(-c3cc(C)cc(Nc4cc(C(F)F)ccn4)n3)cn2)CC1 (single isomer, unassigned) [Example 20-6, 1-[(ethoxycarbonyl)oxy]ethyl trans-4-[(1R or 1S)-1-(6-{[4-(difluoromethyl)pyridin-2-yl]amino}-4-methyl-2,3′-bipyridin-6′-yl)-1-hydroxyethyl] cyclohexanecarboxylate]
